# Assays:
# [1] = tested on: chloroquine-resistant strain FcB1 of P. falciparum; experiment: Anti-Plasmodium activity, [3H]hypoxanthine microdilution on asynchronous cultures; type: cell-based, Plasmodium falciparum
# Protocol: P. falciparum strains (FcB1/Colombia, K1/Thailand, F32/Tanzania, W2/Indochina) were maintained in continuous culture on human erythrocytes in RPMI medium containing 7% (v/v) heat-inactivated human serum under an atmosphere of 3% CO2, 6% O2, 91% N2, at 37°C, as described by Trager and Jensen. Parasite synchronization was performed successively by treatment with 5% (w/v) sorbitol and by concentration in gelatin solution as previously described.
# Drug susceptibility assays were performed using a modification of the semi automated microdilution technique of Desjardins et al.. Stock solutions of test compounds were prepared in DMSO. Drug solutions were serially diluted twofold with 100 μl culture medium in 96-well plates. Asynchronous parasite cultures (100 μl, 1 % parasitemia and 1 % final hematocrite) were added to each well and incubated for 24 hours at 37°C prior to the addition of 0.5 μCi of [^3H] hypoxanthine (Amersham, France, 1 to 5 Ci.mmol/ml) per well. After a further incubation of 24 hour, plates were frozen and thawed. Cell lysates were then collected onto glass-filter papers and counted in a liquid scintillation spectrometer. The growth inhibition for each drug concentration was determined by comparison of the radioactivity incorporated in the treated culture with that in the control culture (having the same final % of DMSO) maintained on the same plate. The concentration causing 50% growth inhibition (IC50) and 90% growth (IC90) were obtained from the drug concentration-response curve and the results were expressed as the means ± the standard deviations determined from several independent experiments.
# [2] = Cytotoxicity test upon human embryonic cells (MTT); type: cell-based; settings: human, MRC-5 human diploid embryonic lung cells; MRC-5, five days, MTT; mean of three experiments
# Protocol: (§1) A human diploid embryonic lung cell line (MRC-5, Bio-Whittaker 72211D) was used to assess the cytotoxic effects towards eukaryotic host cells. MRC-5 cells were seeded at 5,000 cells per well in 100 μl. After 24 hours, the cells were washed and two-fold dilutions of the drug were added in 200 μl standard culture medium (RPMI medium + 5% fetal calf serum) and maintained for five days under 5% CO2 atmosphere. The final DMSO concentration in the culture remained below 0.1%. Untreated cultures were included as controls. The cytotoxicity was determined using the colorimetric MTT assay according to the manufacturer's recommendations (Cell proliferation kit I, Roche Applied Science, France) and scored as a percentage of reduction in absorption at 540 nm of treated cultures versus untreated control cultures. […] The results were expressed as the mean ± the standard deviations determined from several independent experiments. The index of selectivity was defined as the ratio of the IC50 value on MRC-5 to that of P. falciparum.
# human MRC-5 cells = experiment: Cytotoxicity test upon human embryonic cells (MTT); type: cell-based
# Protocol: as §1
# [3] = tested on: P. falciparum synchronized cultures; experiment: Parasite stage-specific inhibitory effects and reversibility (Giemsa-stained smears); type: cell-based, Plasmodium falciparum; settings: for recovery of parasite growth after drug removal: drug removed after 11 hours
# Protocol: Synchronized cultures (1–2% parasitemia) at the ring stage (0–10 hours old parasites), the trophozoite stage (25–35 hours old parasites) and the schizonte stage (40–48 hours old parasites) were maintained in the presence of drug concentrations in the vicinity of IC50 values. Aliquots were removed at the indicated times, washed three times with culture medium and maintained in culture in the absence or in the presence of a given drug. […] Parasitaemias were determined by counting 3,000 cells for each sample. Controls consisted of parasites incubated with DMSO instead of drugs processed in the same way.
# To investigate the cytostatic or cytotoxic effects of AD2646 on the parasite development, cultures at the ring stage (0–10 hours), the trophozoite stage (25–35 hours) and the schizonte stage (40–48 hours) were incubated with 30, 100 or 250 nM of AD2646 for 24.5 hours for the ring stage, for 11 hours for the trophozoite stage, and for 14 hours for the schizonte stage. Aliquots were then taken, washed and incubated in the absence or the presence of drug for a further 13 hours to 24 hours depending upon the parasite stage tested (see Figure 5). Parasitaemia and parasite stages were determined on Giemsa-stained smears at time of aliquot removal and after the subsequent incubation.
# [4] = tested on: P. falciparum sphingomyelin synthase activity; experiment: Sphingomyelin synthase activity assay in trophozoite cultures (NBD-C6-ceramide); type: cell-based, Plasmodium falciparum; settings: trophozoites 20-30 h, 0-500 μM drug, 10 μM NBD-C6-ceramide, 60 min, 37°C
# Protocol: SPM synthase activity was measured as described by Haldar et al.. Briefly, assays were performed on P. falciparum cultures at the trophozoite stage (20–30 h old parasites). 400 μl of culture (1 × 10^8 parasites) were incubated for 60 min at 37°C with 10 μM NBD-C6-ceramide and 0 to 500 μM PPMP or AD2646. Cells were then lysed by freezing and thawing of the culture. Lipids were extracted by a modification of the method of Bligh and Dyer. To each sample, three volumes of a CH3OH/CHCl3 mixture (1:2, v:v) were added and the mixture vortexed for one min. Organic and aqueous phases were separated by centrifugation (12,000 × g, five min) and the organic phase was dried. Lipids were dissolved in 15 μl ethanol and analysed by thin layer chromatography on HPTLC plates (Silica gel 60 F254, Merck, Darmstadt, Germany) in CH3OH/[…]/NH4OH (75:25:4, v:v:v). For qualitative analyses, the fluorescent lipids were detected under UV and for quantitative analyses, the fluorescent lipid spots were scraped, eluted in one ml methanol and quantified at an excitation of 470 nm and an emission of 530 nm in a spectrofluorometer. The percentage of SPM synthase activity for each drug concentration was determined by comparison of the fluorescence quantified in the analog-treated culture with that in the control culture (without drug).
# P. falciparum = experiment: Apoptosis of parasites (TdT DNA fragmentation assay, gel electrophoresis, fluorescence microscopy); type: cell-based, Plasmodium falciparum; settings: 1 μM for up to 36 hours (unpublished data, preliminary)
# From the text: Ceramide is at the parting of different ways of sphingolipid metabolism. Analogs have the potential to inhibit different ceramide-metabolizing enzymes and then might have a pleiotropic effect. Ceramide analogs in amide linkage were described as potent inhibitors of alkaline ceramidase in HL60 human myeloid leukemic cells. Methylene analogs inhibit the biosynthesis of SPM and glycosphingolipids in HL60 cells, and acid ceramidase in vitro [10]. When applied to cancer cells, such analogs induced an elevation of the endogenous level of ceramide with the consequent effects of growth suppression and cell death by apoptosis. […] Apoptosis in P. falciparum is still controversial although some characteristics of apoptosis has been described in Plasmodium. […] The hypothesis that AD2646 induced parasite death through modulation of endogenous ceramide level, as observed for cancer cells, is under investigation.
smiles,measurement,setting,value
CCCCCCCCCCCCCCN[C@H](CO)[C@H](O)c1ccc([N+](=O)[O-])cc1 [AD2646],efficiency in inhibiting parasite development relative to PPMP,[1]; AD2646 versus PPMP,about 300 times
same,IC90,"[1]; Plasmodium falciparum, 48 h, Figure 3, series B, strain FcB1, 90% growth inhibition, read-out: CI90 (the source's name)",57.7 ± 3.2 nM
same,IC50,"[1]; Plasmodium falciparum, Figure 3, series B (methylene or thiourea linkage), strain FcB1, read-out: CI50 (the source's name)",30.8 ± 4.6 nM
same,IC90 at 5 days,[2],7500 nM
same,IC50,"human MRC-5 cells; Homo sapiens, MRC5, 120 h, MRC-5, five days, MTT, mean of three experiments",4900 nM
same,Index of selectivity,human MRC-5 cells; ratio of the IC50 value on MRC-5 cells to that on P. falciparum,160
same,parasite growth from the ring stage,"[3]; ring stage, 100 and 250 nM, no recovery after drug removal at 24 hours",irreversibly blocked at the young trophozoite stage
same,development of the ring stage,"[3]; ring stage, continuous incubation with 30 nM",slightly affected
same,development of the schizont stage,"[3]; schizont stage, 30 nM",a slight effect was only observed
same,parasite growth from the schizont stage,"[3]; schizont stage, 100 nM",irreversibly blocked
same,recovery of parasite growth after drug removal,"[3]; trophozoite stage, 30 nM",Only a partial recovery of parasite growth
same,recovery of parasite growth after drug removal,"[3]; trophozoite stage, 100 nM",No recovery of parasite growth
same,development of the trophozoite stage,"[3]; trophozoite stage, continuous incubation with 30 nM",completely blocked development
same,inhibition of SPM synthase activity (shape of curve),[4],biphasic inhibition curve that superimposes on the PPMP inhibition curve
same,apoptosis of parasites,P. falciparum,failed to exhibit characteristic apoptosis
